Measured values published in the supplement of paper PMC11061612.

Tests used:
Experiment in all cases: Bliss excess, mean over the matrix (fraction); higher = more synergy
[1] = system: BT-20 (Breast Carcinoma)
Outline: (§1)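 Cell lines grown in DMEM/F12 or RPMI with 10% FBS were plated in 1536-well plates and held 24 hours at 37°C, 5% CO2 before 72 hours of exposure to two-drug dose matrices, with DMSO typically at 0.2%. CellTiter-Glo 2.0 luminescence gave viability, which was converted to inhibition. Vehicle wells were set to 0 and blank wells to 1. Combination Emax is the second-highest inhibition in the matrix, and Bliss excess is the observed combination effect minus the expected EA + EB − EA·EB, where EA and EB are the single-agent effects.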

[2] = system: OCUB-M (Breast Carcinoma)
Outline: as §1

[3] = system: DG-75 (Burkitt's Lymphoma)
Outline: as §1

[4] = system: SCC-9 (Oral Cavity Carcinoma)
Outline: as §1

[5] = system: SNU-C1 (Colorectal Carcinoma)
Outline: as §1

[6] = system: NCI-H2405 (Lung Adenocarcinoma)
Outline: as §1

[7] = system: NCI-H513 (Other Solid Carcinomas)
Outline: as §1

[8] = system: IMR-5 (Neuroblastoma)
Outline: as §1

[9] = system: NCI-H2347 (Lung Adenocarcinoma)
Outline: as §1

[10] = system: NH-12 (Neuroblastoma)
Outline: as §1

[11] = system: EMC-BAC-2 (Non-Small Cell Lung Carcinoma)
Outline: as §1

[12] = system: EW-18 (Ewing's Sarcoma)
Outline: as §1

[13] = system: TGBC11TKB (Gastric Carcinoma)
Outline: as §1

[14] = system: KYSE-150 (Esophageal Squamous Cell Carcinoma)
Outline: as §1

[15] = system: HuP-T3 (Pancreatic Carcinoma)
Outline: as §1

[16] = system: U-87-MG (Glioblastoma)
Outline: as §1

[17] = system: NCI-H322M (Lung Adenocarcinoma)
Outline: as §1

[18] = system: HSC-2 (Oral Cavity Carcinoma)
Outline: as §1

[19] = system: A704 (Kidney Carcinoma)
Outline: as §1

[20] = system: RPMI-7951 (Melanoma)
Outline: as §1

CN(CCO)CC[C@H](CSc1ccccc1)Nc1ccc(S(=O)(=O)NC(=O)c2ccc(N3CCC([C@@H](O)c4ccccc4-c4ccc(Cl)cc4)CC3)cc2)cc1S(=O)(=O)C(F)(F)F [AZD4320] + C=CCn1c(=O)c2cnc(Nc3ccc(N4CCN(C)CC4)cc3)nc2n1-c1cccc(C(C)(C)O)n1 [AZD1775] (first compound max 1 µM, partner max 1 µM)
Bliss excess [1]: 0.0557
Bliss excess [2]: 0.075
Bliss excess [3]: -0.0232
Bliss excess [4]: -0.0054
Bliss excess [5]: -0.0588
Bliss excess [6]: -0.0234
Bliss excess [7]: 0.0699
Bliss excess [8]: 0.118
Bliss excess [9]: 0.034
Bliss excess [10]: -0.0149
Bliss excess [11]: -0.0078
Bliss excess [12]: 0.0349
Bliss excess [13]: 0.0443
Bliss excess [14]: -0.0634
Bliss excess [15]: -0.0081
Bliss excess [16]: -0.0637
Bliss excess [17]: -0.0521
Bliss excess [18]: 0.058
Bliss excess [19]: 0.0138
Bliss excess [20]: -0.0023

CC1(C)CCC(CN2CCN(c3ccc(C(=O)NS(=O)(=O)c4ccc(NCC5CCOCC5)c([N+](=O)[O-])c4)c(Oc4cnc5[nH]ccc5c4)c3)CC2)=C(c2ccc(Cl)cc2)C1 [Venetoclax] + CCN(CCO)CCCOc1ccc2c(Nc3cc(CC(=O)Nc4cccc(F)c4)[nH]n3)ncnc2c1 [AZD2811] (first compound max 1 µM, 7x7, partner max 1 µM)
Bliss excess [1]: -0.0005
Bliss excess [2]: -0.049
Bliss excess [3]: -0.0104
Bliss excess [4]: -0.0214
Bliss excess [5]: -0.0321
Bliss excess [6]: -0.0345
Bliss excess [7]: -0.04
Bliss excess [8]: -0.0014
Bliss excess [9]: -0.053
Bliss excess [10]: 0.0685
Bliss excess [11]: -0.0038
Bliss excess [12]: -0.0131
Bliss excess [13]: 0.0287
Bliss excess [14]: 0.0115
Bliss excess [15]: -0.0309
Bliss excess [16]: -0.0009
Bliss excess [17]: -0.0153
Bliss excess [18]: -0.0264
Bliss excess [19]: -0.0365
Bliss excess [20]: 0.0107

Cn1cnc2c(F)c(Nc3ccc(Br)cc3Cl)c(C(=O)NOCCO)cc21 [Selumetinib] + CC(C)n1c(=O)n(C)c2cnc3cc(F)c(-c4ccc(OCCCN5CCCCC5)nc4)cc3c21 [AZD1390] (first compound max 10 µM, 7x7, partner max 0.3 µM)
Bliss excess [1]: -0.0189
Bliss excess [2]: -0.0332
Bliss excess [3]: -0.024
Bliss excess [4]: 0.0185
Bliss excess [5]: -0.0001
Bliss excess [6]: 0.0387
Bliss excess [7]: -0.0769
Bliss excess [8]: 0.0128
Bliss excess [9]: -0.0275
Bliss excess [10]: -0.064
Bliss excess [11]: 0.0079
Bliss excess [12]: -0.0359
Bliss excess [13]: -0.0167
Bliss excess [14]: -0.0626
Bliss excess [15]: -0.0046
Bliss excess [16]: -0.027
Bliss excess [17]: -0.0601
Bliss excess [18]: -0.0212
Bliss excess [19]: -0.0225
Bliss excess [20]: -0.0582

NC1(C(=O)N[C@@H](CCO)c2ccc(Cl)cc2)CCN(c2ncnc3[nH]ccc23)CC1 [Capivasertib] + CC(C)n1c(=O)n(C)c2cnc3cc(F)c(-c4ccc(OCCCN5CCCCC5)nc4)cc3c21 [AZD1390] (first compound max 10 µM, 7x7, partner max 0.3 µM)
Bliss excess [1]: -0.0315
Bliss excess [2]: -0.0424
Bliss excess [3]: -0.0006
Bliss excess [4]: -0.027
Bliss excess [5]: -0.068
Bliss excess [6]: -0.0513
Bliss excess [7]: -0.0506
Bliss excess [8]: -0.0487
Bliss excess [9]: -0.0524
Bliss excess [10]: -0.134
Bliss excess [11]: -0.0761
Bliss excess [12]: -0.084
Bliss excess [13]: -0.0598
Bliss excess [14]: 0.0164
Bliss excess [15]: -0.0444
Bliss excess [16]: -0.0703
Bliss excess [17]: -0.0166
Bliss excess [18]: -0.0117
Bliss excess [19]: -0.0703
Bliss excess [20]: -0.0748

CC1(C)CCC(CN2CCN(c3ccc(C(=O)NS(=O)(=O)c4ccc(NCC5CCOCC5)c([N+](=O)[O-])c4)c(Oc4cnc5[nH]ccc5c4)c3)CC2)=C(c2ccc(Cl)cc2)C1 [Venetoclax] + COc1cc(Nc2ncc3c(n2)-c2ccc(Cl)cc2C(c2c(F)cccc2OC)=NC3)ccc1C(=O)O [Alisertib] (first compound max 1 µM, 7x7, partner max 10 µM)
Bliss excess [1]: 0.08
Bliss excess [2]: 0.111
Bliss excess [3]: 0.028
Bliss excess [4]: -0.0571
Bliss excess [5]: -0.0323
Bliss excess [6]: -0.0251
Bliss excess [7]: -0.0137
Bliss excess [8]: 0.0402
Bliss excess [9]: -0.0487
Bliss excess [10]: 0.0844
Bliss excess [11]: -0.0033
Bliss excess [12]: 0.0421
Bliss excess [13]: 0.0709
Bliss excess [14]: -0.0364
Bliss excess [15]: -0.0527
Bliss excess [16]: -0.087
Bliss excess [17]: -0.0612
Bliss excess [18]: 0.0857
Bliss excess [19]: -0.0913
Bliss excess [20]: 0.0107

CC1(C)CCC(CN2CCN(c3ccc(C(=O)NS(=O)(=O)c4ccc(NCC5CCOCC5)c([N+](=O)[O-])c4)c(Oc4cnc5[nH]ccc5c4)c3)CC2)=C(c2ccc(Cl)cc2)C1 [Venetoclax] + C1CN(CCC1(C(=O)N[C@@H](CCO)C2=CC=C(C=C2)Cl)N)C3=NC=NC4=C3C=CN4 [Capivasertib] (first compound max 1 µM, 7x7, partner max 3 µM)
Bliss excess [1]: -0.035
Bliss excess [2]: -0.0222
Bliss excess [3]: -0.0146
Bliss excess [4]: -0.0438
Bliss excess [5]: -0.109
Bliss excess [6]: -0.0418
Bliss excess [7]: -0.071
Bliss excess [8]: -0.0486
Bliss excess [9]: -0.0627
Bliss excess [10]: -0.0289
Bliss excess [11]: -0.116
Bliss excess [12]: -0.0281
Bliss excess [13]: -0.0374
Bliss excess [14]: 0.0107
Bliss excess [15]: -0.0387
Bliss excess [16]: -0.0214
Bliss excess [17]: -0.103
Bliss excess [18]: -0.0823
Bliss excess [19]: -0.079
Bliss excess [20]: -0.0233

Cc1c2c(nn1C)CSCc1cc(n(C)n1)CSc1cc(c3ccccc3c1)OCCCc1c(C(=O)O)n(C)c3c-2c(Cl)ccc13 [AZD5991] + CN(C)CCCOc1ccc(-c2ccc3ncc4c(c3c2)n(C2CCOCC2)c(=O)n4C)cn1 [AZD0156] (first compound max 1 µM, 7x7, partner max 1 µM)
Bliss excess [1]: 0.0258
Bliss excess [2]: 0.0178
Bliss excess [3]: -0.0286
Bliss excess [4]: -0.0237
Bliss excess [5]: -0.0652
Bliss excess [6]: -0.0075
Bliss excess [7]: -0.004
Bliss excess [8]: -0.0194
Bliss excess [9]: -0.0188
Bliss excess [10]: -0.0511
Bliss excess [11]: -0.0313
Bliss excess [12]: -0.0213
Bliss excess [13]: 0.007
Bliss excess [14]: -0.0143
Bliss excess [15]: -0.0479
Bliss excess [16]: -0.0477
Bliss excess [17]: -0.0017
Bliss excess [18]: -0.0089
Bliss excess [19]: -0.0475
Bliss excess [20]: -0.0382
